Measured values published in patent US10913736B2 (UNIVERSITY OF WASHINGTON, priority 2014, dated 2021).
pEC50, pIC50: −log10 of the molar value. Several values for one entry are separate records, joined by “and”; a condition that tells them apart may be missing. Identical values can stand only once. Like-named read-outs stand apart in the source and are kept apart here.

Tests used:
MetRS (T. brucei) = MetRS (T. brucei) (Trypanosoma brucei brucei, UniProt Q38C91); assay: MetRS (T. brucei) ATP depletion assay using Kinase-Glo; assay type: biochemical
T. brucei = assay: Growth inhibition assay of T. brucei cell cultures (Alamar Blue, 48 h); assay type: cell-based
[1] = Trypanosoma brucei; read-out: B) T. brucei EC50

Sequence of MetRS (T. brucei) (Q38C91 entry or part of it): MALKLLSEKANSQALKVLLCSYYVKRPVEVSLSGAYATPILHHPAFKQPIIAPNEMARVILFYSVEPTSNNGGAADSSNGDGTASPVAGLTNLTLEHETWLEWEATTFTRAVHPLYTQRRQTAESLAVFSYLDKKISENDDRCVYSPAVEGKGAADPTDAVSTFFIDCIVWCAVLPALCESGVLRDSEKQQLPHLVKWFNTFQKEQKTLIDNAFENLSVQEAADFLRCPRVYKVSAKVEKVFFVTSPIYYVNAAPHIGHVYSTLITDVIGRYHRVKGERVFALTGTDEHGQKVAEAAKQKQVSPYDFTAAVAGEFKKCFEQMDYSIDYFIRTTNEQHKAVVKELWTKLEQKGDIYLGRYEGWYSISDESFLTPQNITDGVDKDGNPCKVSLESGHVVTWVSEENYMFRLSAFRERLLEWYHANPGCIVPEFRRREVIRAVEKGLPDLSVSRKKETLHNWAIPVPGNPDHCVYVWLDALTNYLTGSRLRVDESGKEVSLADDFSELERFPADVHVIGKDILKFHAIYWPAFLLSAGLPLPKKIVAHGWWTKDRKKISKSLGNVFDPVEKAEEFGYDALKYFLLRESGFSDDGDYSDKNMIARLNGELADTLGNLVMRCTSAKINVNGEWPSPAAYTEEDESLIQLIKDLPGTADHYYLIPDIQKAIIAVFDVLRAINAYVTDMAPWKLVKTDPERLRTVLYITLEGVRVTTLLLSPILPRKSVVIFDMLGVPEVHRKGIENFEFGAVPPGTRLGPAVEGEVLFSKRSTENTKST

| Compound | pIC50 (MetRS (T. brucei)) | pEC50 (T. brucei; [1]) | pEC50 (T. brucei; read-out: B) T. brucei EC50) |
| --- | --- | --- | --- |
| O=C(Cc1cc(Cl)cc(Cl)c1)N1CCCC(c2nc3cc(Cl)c(Cl)cc3[nH]2)C1 (centres unmarked) [Compound 1745, 1-(3-(5,6-dichloro-1H-benzo[d]imidazol-2-yl)piperidin-1-yl)-2-(3,5-dichlorophenyl)ethanone] | 6.09 | 5.34 |  |
| O=C1CN(Cc2cc(Cl)cc(Cl)c2)CCN1Cc1nc2ccccc2[nH]1 [Compound 1748, 1-((1H-benzo[d]imidazol-2-yl)methyl)-4-(3,5-dichlorobenzyl)piperazin-2-one] | < 5.00 | < 5.00 |  |
| Clc1cc(Cl)cc(CNC2CCCC(c3nc4cc(Cl)cnc4[nH]3)C2)c1 (centres unmarked) [Compound 1841, 3-(6-chloro-3H-imidazo[4,5-b]pyridin-2-yl)-N-(3,5-dichlorobenzyl) cyclohexanamine] | 5.20 | 5.43 |  |
| CC(Cc1nc2cc(Cl)c(Cl)cc2[nH]1)NCc1cc(Cl)cc(Cl)c1 (centres unmarked) [Compound 1822, [1-(5,6-dichloro-1H-1,3-benzodiazol-2-yl)propan-2-yl][(3,5-dichlorophenyl)methyl]amine] | 5.83 | 5.45 |  |
| Clc1cc(Cl)cc(CN[C@H]2CCN(c3nc4ccc(Cl)nc4[nH]3)C2)c1 [Compound 1845, (3S)-1-{5-chloro-3H-imidazo[4,5-b]pyridin-2-yl}-N-[(3,5-dichlorophenyl)methyl]pyrrolidin-3-amine] | 7.33 | 5.81 |  |
| O=C(CCOc1ccc(Cl)cc1Cl)NCc1nc2cccnc2[nH]1 [Compound 1704, 3-(2,4-dichlorophenoxy)-N-{3H-imidazo[4,5-b]pyridin-2-ylmethyl}propanamide] | 6.55 | 5.06 |  |
| N[C@H](CC(=O)NCc1nc2ccccc2[nH]1)Cc1ccc(Cl)cc1Cl [Compound 1726, (3S)-3-amino-N-(1H-1,3-benzodiazol-2-ylmethyl)-4-(2,4-dichlorophenyl)butanamide] | 5.62 | 5.10 |  |
| O=C(Cc1cc(Cl)cc(Cl)c1)N1CCC[C@@H](c2nc3cc(Cl)ccc3[nH]2)C1 [Compound 1757, (R)-1-(3-(5-chloro-1H-benzo[d]imidazol-2-yl)piperidin-1-yl)-2-(3,5-dichlorophenyl)ethanone] | 5.46 | < 5.00 |  |
| Clc1cc(Cl)c(OC2CC2)c(CN[C@H]2CCCN(c3nc4nc(Cl)ccc4[nH]3)C2)c1 [Compound 1930, (S)-1-(5-chloro-1H-imidazo[4,5-b]pyridin-2-yl)-N-(3,5-dichloro-2-cyclopropoxybenzyl)piperidin-3-amine] | 6.41 | 5.51 |  |
| O=C(CCc1nc2nc(Cl)ccc2[nH]1)NCc1cc(Cl)cc(Cl)c1 [Compound 1944, 3-{5-chloro-1H-imidazo[4,5-b]pyridin-2-yl}-N-[(3,5-dichlorophenyl)methyl]propanamide] | 6.27 | 4.93 |  |
| Clc1ccc(CCNCc2nc3nc(Cl)ccc3[nH]2)c(Cl)c1 [Compound 1892, ({5-chloro-3H-imidazo[4,5-b]pyridin-2-yl}methyl)[2-(2,4-dichlorophenyl)ethyl]amine] | 7.48 | 5.81 |  |
| O=C(Cc1ccc(Cl)cc1Cl)N1CCCC(c2nc3ccccc3[nH]2)C1 (centres unmarked) [Compound 1731, 1-(3-(1H-benzo[d]imidazol-2-yl)piperidin-1-yl)-2-(2,4-dichlorophenyl) ethanone] | 5.30 | < 4.70 |  |
| CCN(Cc1cc(Cl)cc(Cl)c1)[C@H]1CCCN(c2nc3ccc(Cl)nc3[nH]2)C1 [Compound 1955, (S)-1-(5-chloro-1H-imidazo[4,5-b]pyridin-2-yl)-N-(3,5-dichlorobenzyl)-N-ethylpiperidin-3-amine] | 6.54 | 5.76 |  |
| Clc1cc(Cl)cc(CO[C@H]2CCCN(c3nc4nc(Cl)ccc4[nH]3)C2)c1 [Compound 1898] | 6.71 | 5.06 |  |
| Clc1cc(Cl)cc(CN[C@@H]2CCCN(c3nc4nc(Cl)ccc4[nH]3)C2)c1 [Compound 1855, (R)-1-(5-chloro-1H-imidazo[4,5-b]pyridin-2-yl)-N-(3,5-dichlorobenzyl) piperidin-3-amine] | 6.72 | 6.00 |  |
| O=C(NCc1nc2ccc(Cl)nc2[nH]1)Nc1cc(Cl)cc(Cl)c1 [Compound 1890, 1-((5-chloro-1H-imidazo[4,5-b]pyridin-2-yl)methyl)-3-(3,5-dichlorophenyl)urea] | 7.11 | 5.21 |  |
| CN(Cc1nc2ccccc2[nH]1)C(=O)OCCc1ccc(Cl)cc1Cl [Compound 1728, 2-(2,4-dichlorophenyl)ethyl N-(1H-1,3-benzodiazol-2-ylmethyl)-N-methylcarbamate] | < 5.00 | < 4.70 |  |
| O=C(Cc1cc(Cl)cc(Cl)c1)N1CCCC(c2nc3ccccc3[nH]2)C1 (centres unmarked) [Compound 1732, 1-(3-(1H-benzo[d]imidazol-2-yl)piperidin-1-yl)-2-(3,5-dichlorophenyl)ethanone] | 6.54 | < 5.30 |  |
| CC(=O)N(Cc1ccc(Cl)cc1Cl)C1CCCC(c2nc3nc(Cl)ccc3[nH]2)C1 (centres unmarked) [Compound 1810, N-(3-(5-chloro-1H-imidazo[4,5-b]pyridin-2-yl)cyclohexyl)-N-(2,4-dichlorobenzyl)acetamide] | 6.44 | 5.34 |  |

| Compound | pIC50 (MetRS (T. brucei)) | pEC50 (T. brucei; [1]) | pEC50 (T. brucei; read-out: B) T. brucei EC50) |
| --- | --- | --- | --- |
| Clc1cc(Cl)cc(NCCNCc2nc3ccc(Cl)nc3[nH]2)c1 [Compound 1994, ({5-chloro-3H-imidazo[4,5-b]pyridin-2-yl}methyl)({2-[(3,5-dichlorophenyl)amino]ethyl})amine] | 7.23 | 5.85 |  |
| O=C(CCOc1ccc(Cl)cc1Cl)NCc1nc2ccc(F)cc2[nH]1 [Compound 1740, 3-(2,4-dichlorophenoxy)-N-((6-fluoro-1H-benzo[d]imidazol-2-yl)methyl)propanamide] | 6.26 | < 5.00 |  |
| O=C(NCc1nc2cccnc2[nH]1)OCc1ccccc1 [Compound 1699, benzyl N-{3H-imidazo[4,5-b]pyridin-2-ylmethyl}carbamate] | 4.88 | < 5.00 |  |
| CC(=O)N(Cc1ccc(Cl)cc1Cl)C1CCCC(c2nc3nc(F)ccc3[nH]2)C1 (centres unmarked) [Compound 1836, N-(2,4-dichlorobenzyl)-N-(3-(5-fluoro-1H-imidazo[4,5-b]pyridin-2-yl)cyclohexyl)acetamide] | 5.84 | 5.12 |  |
| CC(Cc1nc2cc3ccccc3cc2[nH]1)NCc1cc(Cl)cc(Cl)c1 (centres unmarked) [Compound 1826, [(3,5-dichlorophenyl)methyl](1-{1H-naphtho[2,3-d]imidazol-2-yl}propan-2-yl)amine] | 6.34 | 5.10 |  |
| O=C(CCOc1ccc(Cl)cc1Cl)NC1(c2nc3ccccc3[nH]2)CC1 [Compound 1738, N-(1-(1H-benzo[d]imidazol-2-yl)cyclopropyl)-3-(2,4-dichlorophenoxy)propanamide] | < 5.00 | < 4.70 |  |
| Clc1cc(Cl)cc(CNC2CCN(c3nc4nc(Cl)ccc4[nH]3)CC2)c1 [Compound 1867, 1-(5-chloro-1H-imidazo[4,5-b]pyridin-2-yl)-N-(3,5-dichlorobenzyl)piperidin-4-amine] | 5.30 | < 4.70 |  |
| CC(=O)N1CCC(N(C(C)=O)[C@H]2CCCN(c3nc4nc(Cl)ccc4[nH]3)C2)c2cc(Cl)cc(Cl)c21 (some centres unmarked) [Compound 1945] | < 5.00 | 4.86 |  |
| CC(C)[C@@H](Cc1nc2ccc(Cl)cc2[nH]1)NCc1cc(Cl)cc(Cl)c1 [Compound 1828, [(2R)-1-(6-chloro-1H-1,3-benzodiazol-2-yl)-3-methylbutan-2-yl][(3,5-dichlorophenyl)methyl]amine] | < 5.00 | 5.13 |  |
| C[C@H](Cc1nc2ccc(Cl)cc2[nH]1)NCc1cc(Cl)cc(Cl)c1 [Compound 1806, [(2R)-1-(6-chloro-1H-1,3-benzodiazol-2-yl)propan-2-yl][(3,5-dichlorophenyl)methyl]amine] | 5.12 and 5.01 | 5.48 |  |
| O=C(/C=C\Oc1ccc(Cl)cc1Cl)NCc1nc2ccccc2[nH]1 [Compound 1730, (Z)—N-((1H-benzo[d]imidazol-2-yl)methyl)-3-(2,4-dichlorophenoxy)acrylamide] | 6.85 | 6.14 |  |
| Clc1ccc(CN[C@@H]2CCN(c3nc4ccc(Cl)nc4[nH]3)C2)c(Cl)c1 [Compound 1848, (3R)-1-{5-chloro-3H-imidazo[4,5-b]pyridin-2-yl}-N-[(2,4-dichlorophenyl}methyl]pyrrolidin-3-amine] | 6.07 | 4.98 |  |
| CC(C)(CNCc1cc(Cl)cc(Cl)c1)CNc1nc2cccnc2[nH]1 [Compound 1641, N1-(3,5-dichlorobenzyl)-N3-(1H-imidazo[4,5-b]pyridin-2-yl)-2,2-dimethylpropane-1,3-diamine] | > 7.31 and 6.86 | 5.12 | 5.08 |
| O=C1N[C@@H](Cc2ccc(Cl)cc2Cl)C(O)N1Cc1nc2ccccc2[nH]1 (stereo partly drawn) [Compound 1934, (4S)-1-((1H-benzo[d]imidazol-2-yl)methyl)-4-(2,4-dichlorobenzyl)-5-hydroxyimidazolidin-2-one] | 6.93 | 5.70 |  |
| Clc1cc(Cl)cc(CN[C@H]2CCCN(C3=NCc4ccccc4N3)C2)c1 [Compound 1961] | 6.92 | 5.42 |  |
| CN(Cc1nc2ccccc2[nH]1)C(=O)CCOc1ccc(Cl)cc1Cl [Compound 1727, N-(1H-1,3-benzodiazol-2-ylmethyl)-3-(2,4-dichlorophenoxy)-N-methylpropanamide] | 5.29 | < 4.70 |  |
| Clc1cc(Cl)cc(CNCCNc2nc3ncc(Cl)cc3[nH]2)c1 [Compound 1850, [2-({6-chloro-1H-imidazo[4,5-b]pyridin-2-yl}amino)ethyl][(3,5-dichlorophenyl)methyl]amine] | 6.41 | 5.41 |  |
| CC[C@@H](Cc1nc2ccc(Cl)cc2[nH]1)NCc1cc(Cl)cc(Cl)c1 [Compound 1827, [(2S)-1-(6-chloro-1H-1,3-benzodiazol-2-yl)butan-2-yl][(3,5-dichlorophenyl)methyl]amine] | 6.41 | 5.30 |  |
| Clc1ccc(CN[C@H]2CCN(c3nc4ccc(Cl)nc4[nH]3)C2)c(Cl)c1 [Compound 1846, (3S)-1-{5-chloro-3H-imidazo[4,5-b]pyridin-2-yl}-N-[(2,4-dichlorophenyl)methyl]pyrrolidin-3-amine] | 5.79 | 4.96 |  |
